Read-outs that look alike come from different tables or passages of the source.
How the values were obtained:
K562 cells [1] = test: Hoechst/PI staining by fluorescent microscopy; assay type: cell-based, human; conditions: K562, 50 μM, 72 h
Source text: The percentage of apoptotic cells was quantified as the fraction of cells showing fragmented nuclei, as assessed by fluorescence microscopy (Nikon, Tokyo, Japan) after staining with Hoechst 33342 (Sigma-Aldrich) and propidium iodide (Sigma-Aldrich). In addition, apoptosis was confirmed by Annexin V APC (Biolegend, 640919)/propidium iodide (BD Biosciences, 556547) staining and fluorescence-activated cell sorter (FACS) analysis according to the manufacturer protocol (BD Biosciences, 556547).

PBMCs = test: Toxicity test in nonproliferating and proliferating PBMCs (trypan blue); assay type: cell-based, human; conditions: 24, 48, 72 h
Procedure: Peripheral blood mononuclear cells (PBMCs) were isolated by density gradient centrifugation using Ficoll-Hypaque (GE Healthcare, Roosendaal, The Netherlands) from freshly collected buffy coats as previously described, obtained from healthy adult human volunteers (Red Cross, Luxembourg City, Luxembourg) after ethical approval as well as written informed consent from each volunteer. After isolation, cells were incubated overnight at 2 × 10^6 cells/mL in RPMI 1640 (supplemented with 1% antibiotic–antimycotic and 10% FCS (BioWhittaker, Verviers, Belgium) at 37 °C and 5% CO2 in a humidified atmosphere. The day after, cell concentration was adjusted at 1 × 10^6 cells/mL using the same fresh complete medium and then treated as indicated.
(§1) Cell proliferation and viability were assessed by the trypan blue exclusion method (Lonza), and viable cells were counted using a hematocytometer (Marienfeld, Lauda-Königshofen, Germany). Differential toxicity was calculated by comparing the viability of RPMI 1788 cells to the viability of cancer cells (normal/cancer cells). The difference in viability was expressed in terms of fold change.

zebrafish embryos = test: Zebrafish toxicity; conditions: 24 h exposure
Procedure: For toxicity assays, embryos were treated with 0.003% phenylthiourea (PTU) 14 h before the assay to remove pigmentation. Then, 2 h before the assay, the embryo’s shell was eliminated and then treated for up to 24 h with aplysinopsin compounds at indicated concentrations in 24-well plates. Viability and abnormal development were assessed after 24 h of treatment under light microscopy (Carl Zeiss Stereomicroscope DV4, Seoul, Korea). Pictures were taken by fixing embryos onto a glass slide with 3% methylcellulose (Sigma-Aldrich).

RPMI 1788 = test: Trypan blue exclusion test, proliferation (GI50) in noncancerous cells; assay type: cell-based, human; conditions: Homo sapiens
Procedure: as §1

K562 [2] = test: Methocult colony formation assay; assay type: cell-based, human; conditions: K562, 48-h pretreatment
Procedure: For 48 h pretreatment of EE-84 colony formation assays, approximately 3 × 10^5 cells were seeded in each well of a 24-well plate, treated with EE-84 at indicated concentrations, and incubated at 37 °C and 5% of CO2 in a humidified atmosphere for 48 h. After 48 h, 1000 cells were counted and grown in a semisolid methylcellulose medium (Methocult H4230, StemCell Technologies Inc., Vancouver, BC, Canada) supplemented with 10% FBS. Colonies were detected after 10 days of culture by adding 1 mg/mL of 3-(4,5-dimethylthiazol-2-yl)-2,5-diphenyltetrazolium bromide (MTT) reagent (Sigma-Aldrich) and were analyzed by Image J 1.8.0 software (U.S. National Institute of Health, Bethesda, MD, USA).

K562IR cells [3] = test: Trypan blue exclusion test, viability; assay type: cell-based; conditions: Homo sapiens, 24 h
Procedure: as §1

K562 [4] = test: Seahorse XFp Cell Mito Stress test (OCR); assay type: cell-based, human; conditions: K562, EE-84 30 µM, 72 h, vs control
Procedure: (§2) The oxygen consumption rate (OCR) was measured using a Seahorse XFp Cell Mito Stress Assay (#103010-100, Agilent Technologies, Seoul, Korea) ran on a Seahorse XFp analyzer (Agilent Technologies, Seoul, Korea) according to the manufacturer’s instructions. […] Before measurements, plates were equilibrated in a CO2-free incubator at 37 °C for 1 h. The analysis was performed using 1.5 µM oligomycin, 0.5 µM carbonyl cyanide-4-(trifluoromethoxy)phenylhydrazone (FCCP), and 1 µM rotenone/antimycin A as indicated. Data were analyzed using the Seahorse XF Cell Mito Stress Test report generator software (Agilent). The extracellular acidification rate (ECAR) was measured in response to the sequential injection of 10 mM glucose, 2 µM oligomycin (H+-ATP-synthase inhibitor), and 50 mM 2-deoxy-d-glucose (2DG) (hexokinase inhibitor) to detect non-glycolytic acidification, glycolysis, maximal glycolytic capacity, and glycolytic reserve using a Seahorse XFp analyzer with a Glycolysis Stress Test kit (Agilent, Santa Clara, CA, USA).

K562 cells [5] = test: Trypan blue exclusion test, viability; assay type: cell-based, human; conditions: Homo sapiens
Procedure: as §1

MEG01 = test: Trypan blue exclusion test, proliferation (GI50); assay type: cell-based; conditions: Homo sapiens, MEG-01
Procedure: as §1

KBM5 = test: Trypan blue exclusion test, proliferation (GI50); assay type: cell-based; conditions: Homo sapiens
Procedure: as §1

K562IR = test: Trypan blue exclusion test, proliferation (GI50); assay type: cell-based; conditions: Homo sapiens
Procedure: as §1

KBM5IR = test: Trypan blue exclusion test, proliferation (GI50); assay type: cell-based
Procedure: as §1

K562 [6] = test: Seahorse XFp Glycolysis Stress test (ECAR); assay type: cell-based, human; conditions: K562, EE-84 50 μM, 72 h, vs control
Procedure: as §2

K562IR cells [7] = test: Seahorse XFp Glycolysis Stress test (ECAR); assay type: cell-based, human; conditions: EE-84 100 μM, 72 h
Procedure: as §2

## COc1ccc2c(c1)c(C(=O)C(=O)Nc1sc3c(c1C(C)=O)CC(C)CC3)cn2Cc1ccccc1 (stereo not shown) [EE-84, N-(3-Acetyl-4,5,6,7-Tetrahydro-5-Methylbenzo[b]Thiophen-2-yl)-2-(1-Benzyl-5-Methoxy-1H-Indol-3-yl)-2-Oxoacetamide]
K562 cells [1]
  propidium iodide (PI)-positive cells without nuclear fragmentation: 11.0 ± 4.23%
PBMCs
  toxic effects in nonproliferating and proliferating PBMCs: did not induce toxic effects
Zebrafish embryos
  heart rate of zebrafish: moderate decrease
Zebrafish embryos; concentrations up to 100 µM
  growth (relative body length) of zebrafish: did not affect
  survival rate of zebrafish: did not affect
Zebrafish embryos; embryos 24 hpf, different concentrations
  morphological changes of zebrafish: No significant morphological changes
RPMI 1788; RPMI 1788, 24 h
  GI50: > 50 µM
RPMI 1788; RPMI 1788, 48 h
  GI50: > 50 µM
RPMI 1788; RPMI 1788, 72 h
  GI50: 40.1 ± 3.79 µM
K562 [2]
  total surface area and average size of colonies: reduced
K562IR cells [3]; EE-84 30 µM
  viability at 30 µM: 95.3 ± 0.6%
K562IR cells [3]; EE-84 50 µM
  viability at 50 µM: 97 ± 2.7%
K562 [4]
  oxygen consumption rate (OCR): significantly decreased
K562 cells [5]; K562, EE-84 30 μM 48 h with Baf-A1 (40 nM) post-treatment for last 8 h, read-out: cell viability
  viability at 30 µM: 89%
K562 cells [5]; K562, EE-84 30 µM, 24 h, read-out: Viability (24 h)
  viability at 30 µM: 98 ± 1%
K562 cells [5]; K562, EE-84 30 μM, 48 h, alone, read-out: cell viability
  viability at 30 µM: 98.7%
K562 cells [5]; K562, EE-84 50 µM, 24 h
  viability at 50 µM: 96 ± 0.7%
MEG01; MEG01, 24 h
  GI50: > 50 µM
MEG01; MEG01, 48 h
  GI50: 48.4 ± 5.02 µM
MEG01; MEG01, 72 h
  GI50: 28.9 ± 1.52 µM
KBM5; KBM5, 24 h
  GI50: > 50 µM
KBM5; KBM5, 48 h
  GI50: 34 ± 1.89 µM
KBM5; KBM5, 72 h
  GI50: 28.1 ± 1.68 µM
K562IR; 24 h
  GI50: > 100 µM
K562IR; 48 h
  GI50: 95.6 ± 16.6 µM
K562IR; 72 h
  GI50: 55.1 ± 3.28 µM
KBM5IR; 24 h
  GI50: > 100 µM
KBM5IR; 48 h
  GI50: 32.8 ± 2.25 µM
KBM5IR; 72 h
  GI50: 29.2 ± 2.05 µM
K562 [6]
  glycolysis and glycolytic capacity (ECAR): significantly decreased
K562IR cells [7]
  glycolytic capacity of ECAR: significantly decreased
